Broadly, the IC50 is the concentration that inhibits the measured activity by half. A high value points to lower potency. By half-life is commonly meant the time in which the quantity being followed falls by half.

Data set [1] addresses T1, N-acylethanolamine-hydrolyzing acid amidase (Homo sapiens, UniProt Q02083).
T1 sequence (Q02083 whole entry): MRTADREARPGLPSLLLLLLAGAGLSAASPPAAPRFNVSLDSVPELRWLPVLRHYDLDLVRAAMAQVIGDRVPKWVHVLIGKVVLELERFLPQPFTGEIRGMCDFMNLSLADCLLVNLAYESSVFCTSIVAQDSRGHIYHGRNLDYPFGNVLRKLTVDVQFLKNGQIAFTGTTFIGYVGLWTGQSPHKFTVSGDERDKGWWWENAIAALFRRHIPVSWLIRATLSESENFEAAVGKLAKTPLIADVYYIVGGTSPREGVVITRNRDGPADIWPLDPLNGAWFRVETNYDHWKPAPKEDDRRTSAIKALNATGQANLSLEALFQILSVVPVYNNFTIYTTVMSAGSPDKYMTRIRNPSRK
Nature of the data set: Inhibition of human NAAA using N-(4-methyl coumarin)-palmitamide as fluorogenic substrate preincubated for 90 mins followed by substrate addition by fluorescence assay.

Data set [2] in a line: Drug concentration in plasma of CD-1 mouse at 8 mg/kg, po administered as single cassette dose measured after 60 mins. It counts as ADME, organism-based.
For data set [3], the target named is T2, Cathepsin K (Homo sapiens) (UniProt P43235).
T2 sequence (whole entry): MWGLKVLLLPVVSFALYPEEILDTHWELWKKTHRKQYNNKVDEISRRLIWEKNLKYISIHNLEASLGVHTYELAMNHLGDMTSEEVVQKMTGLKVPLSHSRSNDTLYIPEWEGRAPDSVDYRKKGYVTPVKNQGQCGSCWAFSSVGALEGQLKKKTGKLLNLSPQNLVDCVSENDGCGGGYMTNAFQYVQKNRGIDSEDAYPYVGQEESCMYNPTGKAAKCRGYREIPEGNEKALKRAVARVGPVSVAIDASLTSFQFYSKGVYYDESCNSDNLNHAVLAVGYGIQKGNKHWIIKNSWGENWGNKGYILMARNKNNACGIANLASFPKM
Nature of the data set: Inhibition of recombinant human Cathepsin K at 1 uM using Z-Phe-Arg-AMC as fluorogenic substrate preincubated for 120 mins followed by substrate addition by fluorescence assay.

Data set [4] can be described thus: Drug concentration in plasma of CD-1 mouse at 2 mg/kg, iv administered as single cassette dose measured after 15 mins. It counts as ADME, organism-based.
Data set [5] in a line: Drug concentration in brain of CD-1 mouse at 2 mg/kg, iv administered as single cassette dose measured after 15 mins. Particulars: read-out: Ct. The data set is classed as ADME, organism-based.
Data set [6] is described as follows: Drug concentration in plasma of CD-1 mouse at 8 mg/kg, po administered as single cassette dose measured after 30 mins. It counts as ADME, organism-based.
Data set [7] addresses T3, N-acylethanolamine-hydrolyzing acid amidase (Homo sapiens) (UniProt Q02083).
T3 sequence (whole entry): T1 sequence (Q02083 whole entry)
Nature of the data set: Covalent inhibition of human NAAA assessed as ratio of Kinact/Ki.

A short description of data set [8]: Half life in rat liver microsomes at 1 uM in presence of NADPH by LC-MS/MS analysis. It counts as ADME, Microsome. (Liver microsomes are vesicles of endoplasmic reticulum, rich in cytochrome P450 enzymes.)
Data set [9] in a line: Half life in human liver microsomes at 1 uM in presence of NADPH by LC-MS/MS analysis. It counts as ADME, Microsome.
Data set [10] is described as follows: Half life in mouse liver microsomes at 1 uM in presence of NADPH by LC-MS/MS analysis. It counts as ADME, Microsome.

Activity calls are given as the source filed them. The rule behind the calls is not given here.

Regarding `Cn1cc(-c2ccc(CO[C@H]3C[C@@H](N=C=S)C3)c(F)c2)cn1`, the midpoint of inhibition in data set [1], the IC50, lay at 517 nM.
Take `COc1ccc(-c2ccc(C(=O)N[C@H]3C[C@@H](N=C=S)C3)nc2)cc1`: in [2], the concentration at 1 h was determined as 8 ng/mL. Moreover, in [3], the inhibition entry was “inactive”. The values for the concentration at 0.25 h in [4] and in [5] were 264 ng/mL and 809 ng/g, respectively. For the same compound, the IC50 in [1] came to 7.6 nM. Besides, in [6], the concentration at 0.5 h was 12 ng/mL.
As to `COc1ccc(-c2ccc(O[C@H]3C[C@@H](N=C=S)C3)cc2)cc1F`, inhibition in [1] was half-maximal at 35.9 nM (IC50).
On to `Cc1ccc(-c2ccc(CO[C@H]3C[C@@H](N=C=S)C3)cc2)cc1`, for which the Ratio in [7] was 2.04 10^6/M/s. Also, in [1], the half-maximal inhibitory concentration (IC50) was determined as 26 nM.
In data set [1], `COc1ccc(-c2ccc(CN3CC(N=C=S)C3)c(F)c2)cc1F` gave a concentration for half-maximal inhibition (IC50) of 176 nM.
On the same count and under the same terms, the result for `Fc1cc(-c2ccc3c(c2)OCC3)ccc1CO[C@H]1C[C@@H](N=C=S)C1` reads 59.3 nM; that for `COc1ccc(C2CC(C(=O)N[C@H]3C[C@@H](N=C=S)C3)C2)cc1` (stereo partly specified), 55.9 nM; that for `S=C=NC1CN(CCCCCCc2ccccc2)C1`, 8.3 nM.
For the compound `COc1ccc(-c2ccc(S(=O)(=O)N[C@H]3C[C@@H](N=C=S)C3)cc2)cc1`, the concentration at 1 h in data set [2] came to 20 ng/mL. Also, the inhibition entry in [3] is “inactive”. Also, the concentration at 0.25 h in [4] was 164 ng/mL; in [5], 1090 ng/g. Moreover, the IC50 in [1] is 2.3 nM. This compound registered a concentration at 0.5 h in data set [6] of 20 ng/mL.
`COc1ccc(-c2ccc3c(c2)CCN([C@H]2C[C@@H](N=C=S)C2)C3)cc1F` registered an IC50 in data set [1] of 89 nM.
The compound `COc1ccc(-c2ccc(CO[C@H]3CC[C@@H](N=C=S)C3)nc2)cc1F` (single isomer, unassigned) had an IC50 in [1] of 1450 nM.
Same read-out and setting: as for `S=C=N[C@H]1C[C@H](OCc2ccc(-c3ccccc3)cc2)C1`, the figure is 4300 nM; as for `COc1ccc(-c2ccc(CO[C@]3(C)C[C@H](N=C=S)C3)c(F)c2)cc1F`, 480 nM.
On to `COc1ccc(-c2ccc(S(=O)(=O)N[C@H]3C[C@@H](N=C=S)C3)cc2)cc1F`, for which the inhibition entry in data set [3] was “inactive”. Further, the values for the half-life at 1 µM in data set [8], in data set [9] and in data set [10] were 6 min, 8 min and 6 min, respectively. The compound further displayed an IC50 in data set [1] of 3.2 nM.
For the compound `COc1ccc(-c2ccc(OC(=O)N[C@H]3C[C@@H](N=C=S)C3)cc2)cc1`, the figures for the half-life at 1 µM in data set [8], in data set [9] and in [10] were 5 min, 6.4 min and 6.2 min, respectively. Besides, the IC50 in data set [1] was 7 nM.
Turning to `Fc1cc(-c2ccc3c(c2)OCCO3)ccc1CO[C@H]1C[C@@H](N=C=S)C1`, the Ratio in [7] is 2.43 10^5/M/s. In addition, the concentration at 1 h in data set [2] is 7 ng/mL. Besides, the values for the concentration at 0.25 h in [4] and in data set [5] were 168 ng/mL and 12 ng/g, respectively. The compound further showed an IC50 in data set [1] of 11.8 nM. This compound also yielded a concentration at 0.5 h in data set [6] of 12 ng/mL.
In data set [1], `COc1ccc(-c2ccc(COC3C[C@@H](N=C=S)C3(C)C)nc2)cc1F` (single isomer, unassigned) gave an IC50 of 246 nM.
On to `Fc1cc(-c2ccc3c(c2)OCO3)ccc1CO[C@H]1C[C@@H](N=C=S)C1`, for which the Ratio in data set [7] was 3.44 10^5/M/s. The concentration at 1 h in data set [2] is 13 ng/mL. The half-life at 1 µM was determined as 6.5 min in data set [8], 3.3 min in [9] and 2.4 min in data set [10]. Besides, the concentration at 0.25 h in data set [4] amounted to 244 ng/mL; in data set [5] it was 14 ng/g. This compound displayed an IC50 in data set [1] of 8.8 nM. Moreover, the concentration at 0.5 h in data set [6] stood at 31 ng/mL.
In the case of `COc1ccc(CCCCCC(=O)N[C@H]2C[C@@H](N=C=S)C2)cc1`, the half-inhibitory concentration (IC50) in data set [1] was 22.5 nM.
Take `COc1ccc(-c2ccc(CO[C@H]3C[C@@H](N=C=S)C3)c(F)c2)cc1OC`: the Ratio in data set [7] was 7.97 10^5/M/s. The compound also had an IC50 in data set [1] of 58.9 nM.
Turning to `COc1ccc(-c2ccc(C(C)O[C@H]3C[C@@H](N=C=S)C3)c(F)c2)cc1F` (stereo partly specified), the IC50 in [1] worked out at 14.6 nM.
With `FC1(F)Oc2ccc(-c3ccc(CO[C@H]4C[C@@H](N=C=S)C4)nc3)cc2O1`, inhibition in data set [1] was half-maximal at 171 nM (IC50).
In the case of `CCOc1ccc(-c2ccc(CO[C@H]3C[C@@H](N=C=S)C3)c(F)c2)cc1F`, in data set [1], the concentration for half-maximal inhibition (IC50) came to 69.2 nM.
On the same count and under the same terms, as for `COc1ccc(N2CCC(C(=O)N[C@H]3C[C@@H](N=C=S)C3)CC2)cc1`, the figure is 137 nM; as for `COc1ccc(Oc2ccc(C(=O)N[C@H]3C[C@@H](N=C=S)C3)cc2)cc1`, 1420 nM; as for `COc1ccc(-c2cc(C(=O)N[C@H]3C[C@@H](N=C=S)C3)on2)cc1`, 91.5 nM.
`COc1cc(-c2ccc(CO[C@H]3C[C@@H](N=C=S)C3)c(F)c2)ccc1F` showed an IC50 in data set [1] of 155 nM.
The compound `COc1ccc(CCCC(=O)N[C@H]2C[C@@H](N=C=S)C2)cc1` displayed an IC50 in data set [1] of 62 nM.
On the same count and under the same terms, as for `COc1ccc(-c2ccc(C(=O)N[C@]34C[C@](N=C=S)(C3)C4)c(F)c2)cc1`, the figure is 1230 nM; as for `COc1ccc(-c2ccc(CO[C@H]3CC[C@@H](N=C=S)CC3)cc2)cc1F`, 386 nM; as for `COc1ccc(-c2ccc(CO[C@H]3C[C@@H](N=C=S)C3)nc2)nc1`, 30.4 nM.
On the same count and under the same terms, as for `COc1cnc(-c2ccc(CO[C@H]3C[C@@H](N=C=S)C3)[n+]([O-])c2)cc1F`, the figure is 23.5 nM.
Turning to `S=C=N[C@H]1C[C@@H](OCc2ccc(-c3ccccc3)cc2)C1`, the Ratio in data set [7] was 7.23 10^6/M/s. The half-life at 1 µM was 19.6 min in data set [8], 16.1 min in data set [9] and 14.4 min in [10]. Also, in [1], 93 nM corresponded to half-maximal inhibition (IC50).
In the case of `COc1ccc(-c2noc(CO[C@H]3C[C@@H](N=C=S)C3)n2)cc1`, the IC50 in data set [1] turned out to be 493 nM.
Still for that read-out and setting: as for `COc1ccc(-c2cnc(C(=O)N[C@H]3C[C@@H](N=C=S)C3)cn2)cc1`, the figure is 853 nM.
Regarding `COc1cccc(-c2ccc(CO[C@H]3C[C@@H](N=C=S)C3)cc2)c1`, the Ratio in data set [7] was 2.24 10^6/M/s. In [1], this compound had an IC50 of 22 nM.
In the case of `Fc1cc(-c2cccc(C(F)(F)F)c2)ccc1CO[C@H]1C[C@@H](N=C=S)C1`, the concentration at 1 h in [2] was 331 ng/mL. For the same compound, the half-life at 1 µM in data set [8] worked out at 17.9 min; in data set [9], 16 min; in data set [10], 13.2 min. Moreover, the concentration at 0.25 h in [4] is 1010 ng/mL; in data set [5], 810 ng/g. The same compound displayed an IC50 in [1] of 67.2 nM. The same compound yielded a concentration at 0.5 h in data set [6] of 19 ng/mL.
The compound `Fc1cc(-c2cccc(OCc3ccccc3)c2)ccc1CO[C@H]1C[C@@H](N=C=S)C1` displayed an IC50 in [1] of 99.8 nM.
The same measure, in the same setting: as for `COc1ccc(-c2cc(CO[C@H]3C[C@@H](N=C=S)C3)on2)cc1`, the figure is 43.6 nM; as for `COc1ccc(-c2ccc3c(c2)CN([C@H]2C[C@@H](N=C=S)C2)CC3)cc1F`, 356 nM; as for `Cc1ccc(-c2ccc(CO[C@H]3C[C@H](N=C=S)C3)cc2)cc1`, 580 nM.
On to `COc1ccc(C23CC(C(=O)N[C@H]4C[C@@H](N=C=S)C4)(C2)C3)cc1`, for which the IC50 in data set [1] came to 128 nM.
Consider `CN(Cc1ccc(-c2ccccc2)cc1)[C@H]1C[C@@H](N=C=S)C1`, for which the results for the half-life at 1 µM in data set [8], in data set [9] and in [10] were 4.4 min, 14.7 min and 5.1 min, respectively. Also, in [1], the IC50 was determined as 1920 nM.
For the compound `COc1ccc(-c2ccc3c(c2)CN([C@H]2C[C@@H](N=C=S)C2)C3)cc1F`, the IC50 in data set [1] is 74.2 nM.
